ChEMBL document CHEMBL1201862, “PubChem BioAssay data set” (2004)
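Each compound was tested at five concentrations against cells in 96-well plates for 48 hours. Here, GI50 denotes the concentration required for 50% inhibition of growth.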 Active and inactive are the calls of the source. Rule as the data show it: active = GI50 up to about 1.1 µM and inactive = higher.

Legend:
Experiment in all cases: growth of human tumour cells (NCI), 48 h
A498 = tested on: A498
U-251 = tested on: U-251
CAKI-1 = tested on: CAKI-1
SK-OV-3 = tested on: SK-OV-3
RPMI-8226 = tested on: RPMI-8226
OVCAR-8 = tested on: OVCAR-8
SK-MEL-28 = tested on: SK-MEL-28
HOP-62 = tested on: HOP-62
HCC 2998 = tested on: HCC 2998
LOX IMVI = tested on: LOX IMVI
M14 = tested on: M14
OVCAR-5 = tested on: OVCAR-5
SK-MEL-2 = tested on: SK-MEL-2
SNB-75 = tested on: SNB-75
SK-MEL-5 = tested on: SK-MEL-5
KM12 = tested on: KM12
SW-620 = tested on: SW-620
UACC-257 = tested on: UACC-257
NCI-H226 = tested on: NCI-H226

Measured: GI50

NC(=O)C12CCC1C1CCCCC12N1CCOCC1 (centres undefined)
inactive: A498 > 100 µM | U-251 > 100 µM | CAKI-1 > 100 µM | SK-OV-3 > 100 µM | RPMI-8226 > 100 µM | OVCAR-8 > 100 µM | SK-MEL-28 > 100 µM | HOP-62 > 100 µM | HCC 2998 > 100 µM | LOX IMVI > 100 µM | M14 > 100 µM | OVCAR-5 > 100 µM | SK-MEL-2 > 100 µM | SNB-75 > 100 µM | SK-MEL-5 > 100 µM | KM12 > 100 µM | SW-620 > 100 µM

COc1ccc(OC)c(CNc2ccc(O)c(C(=O)NCCc3ccc(F)cc3)c2)c1
inactive: A498 16.4 µM | U-251 11.9 µM | CAKI-1 21.5 µM | SK-OV-3 17.3 µM | RPMI-8226 2.83 µM | OVCAR-8 16.2 µM | SK-MEL-28 3.3 µM | HOP-62 4.08 µM | HCC 2998 3.58 µM | LOX IMVI 11.1 µM | M14 10.4 µM | OVCAR-5 22.4 µM | SK-MEL-2 8.15 µM | SK-MEL-5 7.19 µM | KM12 9.71 µM | UACC-257 13.5 µM | SW-620 15.7 µM

N/C(=N\c1ccc(Cl)cc1)c1ccccc1N
inactive: A498 > 100 µM | NCI-H226 > 100 µM | U-251 > 100 µM | CAKI-1 > 100 µM | SK-OV-3 > 100 µM | RPMI-8226 > 100 µM | OVCAR-8 > 100 µM | SK-MEL-28 > 100 µM | HOP-62 > 100 µM | HCC 2998 > 100 µM | LOX IMVI > 100 µM | M14 > 100 µM | OVCAR-5 > 100 µM | SNB-75 > 100 µM | SK-MEL-5 > 100 µM | KM12 > 100 µM | UACC-257 > 100 µM | SW-620 > 100 µM

CC1C[C@H](C)CC(C(O)CC2CC(=O)N(Cc3ccccc3)C(=O)C2)C1O (some centres undefined)
inactive: A498 > 100 µM | NCI-H226 > 100 µM | U-251 > 100 µM | CAKI-1 > 100 µM | SK-OV-3 > 100 µM | RPMI-8226 > 100 µM | OVCAR-8 > 100 µM | SK-MEL-28 > 100 µM | HOP-62 > 100 µM | HCC 2998 > 100 µM | LOX IMVI > 100 µM | M14 > 100 µM | OVCAR-5 > 100 µM | SNB-75 > 100 µM | KM12 48.9 µM | UACC-257 > 100 µM | SW-620 > 100 µM
